According to patent US10222381B2, “Water-soluble peptide fluorescence material” (NATIONAL CHIAO TUNG UNIVERSITY, priority 2015, dated 2019):
Non-standard residues stand in square brackets, D forms with d. Residues, ends and D or L forms follow the SMILES beside them. ξ: configuration not given here. *: point of attachment. Acetyl(1,8-naphthalimido) = O=C1c2cccc3cccc(c23)C(=O)N1CC(=O)*; ξY = NC(Cc1ccc(O)cc1)C(=O)O

Key:
[1] = Fluorescence intensity and emission wavelength at different pH values; type: physicochemical; settings: for color of fluorescence / emission peak: pH 5; for fluorescence intensity: pH 10 to 6
Excerpt: In Experimental Examples 210, 220, 230, 240, 250, 260, 270 and 280, the above water-soluble peptide fluorescence material is respectively placed in environments having a pH value of 10, 9, 8, 7, 6, 5, 4 and 3 for testing. In Experimental Examples 210 to 230, the water-soluble peptide fluorescence material is respectively placed in environments having the pH value of 10, 9 and 8.
Continuing in FIG. 5, which illustrates a fluorescence intensity and an emission wavelength of the water-soluble peptide fluorescence material of formula (III-10) at different pH values. In Experimental Examples 510, 520, 530, 540, 550, 560, 570 and 580, the water-soluble peptide fluorescence material of formula (III-10) is respectively placed in environments having a pH value of 10, 9, 8, 7, 6, 5, 4 and 3 for testing. In Experimental Examples 510 to 560, the water-soluble peptide fluorescence material is placed in environments having the pH value of 10 to 5, and two emission peaks are shown in FIG. 5. […] Then, the pH value is further decrease to 4 (Experimental Example 570) and 3 (Experimental Example 580), and only the emission peak at about 400 nm is remained, so the observed fluorescence has a color of purple in Experimental Examples 570 and 580. Therefore, the water-soluble peptide fluorescence material of formula (III-10) is able to detect and mark locations of acidic cells by change of the color.
Continuing in FIG. 7, which illustrates a fluorescence intensity and an emission wavelength of the water-soluble peptide fluorescence material of formula (III-21) at different pH values. In Experimental Examples 710, 720, 730, 740, 750, 760, 770 and 780, the water-soluble peptide fluorescence material of formula (III-21) is respectively placed in environments having a pH value of 10, 9, 8, 7, 6, 5, 4 and 3 for testing. In Experimental Examples 710 to 750, the water-soluble peptide fluorescence material is placed in environments having the pH value of 10 to 6. […] However, the fluorescence intensity of Experimental Examples 780 is decreased when the pH value is decreased from 4 to 3.
Continuing in FIG. 8, which illustrates a fluorescence intensity and an emission wavelength of the water-soluble peptide fluorescence material of formula (III-22) at different pH values. In Experimental Examples 810, 820, 830, 840, 850, 860, 870 and 880, the water-soluble peptide fluorescence material of formula (III-22) is respectively placed in environments having a pH value of 10, 9, 8, 7, 6, 5, 4 and 3 for testing. In Experimental Examples 810 to 850, the water-soluble peptide fluorescence material is respectively placed in environments having the pH value of 10 to 6. […] In addition, the fluorescence intensity of Experimental Example 860 (pH=5) is 90 times of the fluorescence intensity of Experimental Example 810 […], which represents that the water-soluble peptide fluorescence material has obvious light-emitting interval and easily to identify and detect positions of the acidic cells.
FIG. 10 illustrates a fluorescence intensity and an emission wavelength of the water-soluble peptide fluorescence material of formula (III-23) at different pH values. In Experimental Examples 1010, 1020, 1030, 1040, 1050, 1060, 1070 and 1080, the water-soluble peptide fluorescence material of formula (III-23) is respectively placed in environments having a pH value of 10, 9, 8, 7, 6, 5, 4 and 3 for testing. In Experimental Examples 1010 to 1050, the water-soluble peptide fluorescence material is respectively placed in environments having the pH value of 10 to 6. […] The water-soluble peptide fluorescence material not only provides obvious marker, but also achieves the same effect of the fluorescence at a low concentration, and thereby reduces the costs.
FIG. 11 illustrates a fluorescence intensity and an emission wavelength of the water-soluble peptide fluorescence material of formula (III-27) at different pH values. […]

[2] = Fluorescence in co-solvents of water and dimethyl sulfoxide (aggregation-induced emission); type: physicochemical; settings: for fluorescence intensity with increase of the volume ratio of water: aggregation-induced emission; for color of observed fluorescence / emission wavelength: water/dimethyl sulfoxide co-solvent
Excerpt: Continuing in FIG. 4, which illustrates a fluorescence intensity and an emission wavelength of the water-soluble peptide fluorescence material of formula (III-1) in co-solvents having different proportions of water and dimethyl sulfoxide. In Experimental Example 401, 402, 403, 404, 405, 406, 407, 408, 409, 410 and 411, water respectively has 0, 10, 20, 30, 40, 50, 60, 70, 80, 90 and 100% of a total volume of the co-solvent. […] As such, no significant fluorescence marker is shown, so it is difficult to observe apparent fluorescence visually. […] Given the above, the fluorescence intensity of the water-soluble peptide fluorescence material of formula (III-1) is increased corresponding to the increase of the volume ratio of water, which is also referred as aggregation-induced emission (AIE). In addition, the water-soluble peptide fluorescence material of formula (III-1) has the emission wavelength of about 400 nm, so the observed fluorescence has a color of blue violet.
Continuing in FIG. 9, which illustrates a fluorescence intensity and an emission wavelength of the water-soluble peptide fluorescence material of formula (III-23) in co-solvents having different proportions of water and dimethyl sulfoxide. In Experimental Examples 901, 902, 903, 904, 905, 906, 907, 908, 909 and 910, water respectively has 0, 10, 20, 30, 40, 50, 60, 70, 80 and 90% of a total volume of the co-solvent. […] Given the above, the fluorescence intensity of the water-soluble peptide fluorescence material of formula (III-23) is increased corresponding to the increase of the volume ratio of water and has a phenomenon of aggregation-induced emission in water. In addition, the water-soluble peptide fluorescence material of formula (III-23) has the emission wavelength of about 550 nm, so the observed fluorescence has a color of green.
FIG. 12 illustrates a fluorescence intensity and an emission wavelength of the water-soluble peptide fluorescence material of formula (III-28) in co-solvents having different proportions of water and dimethyl sulfoxide. In Experimental Example 1201, 1202, 1203, 1204, 1205, 1206, 1207, 1208, 1209, 1210 and 1211, water respectively has 0, 10, 20, 30, 40, 50, 60, 70, 80, 90 and 99% of a total volume of the co-solvent. […] As such, no significant fluorescence marker is shown, so it is difficult to observe apparent fluorescence visually. […] Given the above, the fluorescence intensity of the water-soluble peptide fluorescence material of formula (III-28) is increased corresponding to the increase of the volume ratio of water and has a phenomenon of aggregation-induced emission in water. In addition, the water-soluble peptide fluorescence material of formula (III-28) has the emission wavelength of about 400 nm, so the observed fluorescence has a color of violet. FIG. 13 depicts a ratio of the fluorescence intensity between Experimental Examples 1202 to 1211 and Experimental Example 1201, at the emission wavelength of 400 nm.
FIG. 15 illustrates a fluorescence intensity and an emission wavelength of the water-soluble peptide fluorescence material of formula (III-30) in co-solvents having different proportions of water and dimethyl sulfoxide. In Experimental Example 1501, 1502, 1503, 1504, 1505, 1506, 1507, 1508, 1509, 1510 and 1511, water respectively has 0, 10, 20, 30, 40, 50, 60, 70, 80, 90 and 100% of a total volume of the co-solvent. […] As such, no significant fluorescence marker is shown, so it is difficult to observe apparent fluorescence visually. […] Accordingly, the fluorescence intensity of the water-soluble peptide fluorescence material of formula (III-30) is increased corresponding to the increase of the volume ratio of water and has a phenomenon of aggregation-induced emission in water. In addition, the water-soluble peptide fluorescence material of formula (III-30) has the emission wavelength of about 400 to 425 nm, so the observed fluorescence has a color of blue violet. […]

[3] = Fluorescence in co-solvents of glycerol and methanol (aggregation-induced emission); type: physicochemical
Excerpt: Continuing in FIG. 6, which illustrates a fluorescence intensity and an emission wavelength of the water-soluble peptide fluorescence material of formula (III-14) in co-solvents having different proportions of glycerol and methanol. In Experimental Example 601, 602, 603, 604, 605, 606, 607, 608, 609 and 610, methanol respectively has 0, 10, 20, 30, 40, 50, 60, 70, 80 and 90% of a total volume of the co-solvent. […] Given the above, the fluorescence intensity of the water-soluble peptide fluorescence material of formula (III-14) is increased corresponding to the increase of the volume ratio of methanol, so the water-soluble peptide fluorescence material of formula (III-14) also has a phenomenon of aggregation-induced emission (AIE) in methanol. In addition, the water-soluble peptide fluorescence material of formula (III-14) has the emission wavelength of about 550 nm, so the observed fluorescence has a color of green.

[4] = system: acidic cells in living cells; test: Fluorescence marking of acidic cells in living cells, compared with Lysotracker; type: cell-based; settings: living cells, FIGS. 1A/1B
Excerpt: The water-soluble peptide fluorescence material is designed to illuminate in acid, neutral or weak base environment, and following embodiments give an example illuminating in acid environment. FIGS. 1A, 1B and 1C are comparative pictures between a water-soluble peptide fluorescence material of the present disclosure and a traditional fluorescence material at the same concentration. The water-soluble peptide fluorescence material has a structure of following formula including a peptide sequence Phe-Asp-Gly-Glu-Ala (SEQ ID NO: 5):
Continuing in FIG. 1B to compare with FIG. 1A, FIG. 1B uses the water-soluble peptide fluorescence material of the present disclosure, which is also used to mark acidic cells in living cells. […] Accordingly, the water-soluble peptide fluorescence material is suitable for a biological fluorescence probe, so as to detect and mark positions of the acidic cells.
At the same concentration, the water-soluble peptide fluorescence material has the greater fluorescence intensity than that of Lysotracker. On this base, a dose of the water-soluble peptide fluorescence material could be decreased to achieve the same fluorescence intensity with the Lysotracker, so as to decrease medical costs and damage to human bodies.

Row | SMILES | color of fluorescence [1] | emission peak [1] | fluorescence intensity [1] | change of fluorescence intensity ([1]; pH decreased to 4 and 3) | change of fluorescence intensity ([1]; pH decreased to 5) | fluorescence intensity with increase of the volume ratio of water [2] | fluorescence intensity ([2]; water 0 to 80%) | fluorescence intensity ([2]; water 90%) [fluorescent units] | fluorescence intensity ([2]; water 99%) | color of observed fluorescence [2] | emission wavelength [2] | further results
1 | C[C@H](NC(=O)[C@H](CCC(=O)O)NC(=O)CNC(=O)[C@H](CC(=O)O)NC(=O)[C@H](Cc1ccccc1)NC(=O)CN1C(=O)c2cccc3cccc(c23)C1=O)C(=O)O [III-28] ({Acetyl(1,8-naphthalimido)}-FDGEA-OH) | purple | about 400 nm | low fluorescence intensities | significantly increased | significantly increased | increased | low fluorescence intensity | 150 | about 110 fluorescent units | violet | about 400 nm | ratio of fluorescence intensity Experimental Example 1211 (99% water) to 1201 (0% water) ([2]; emission wavelength of 400 nm): 225 times
2 | O=C(CNC(=O)CNC(=O)CN1C(=O)c2cccc3cccc(c23)C1=O)NCC(=O)NCC(=O)NCC(=O)NC(Cc1ccc(O)cc1)C(=O)O (stereo not drawn) [III-30] ({Acetyl(1,8-naphthalimido)}-GGGGG[ξY]-OH) | – | – | – | – | – | increased | lower than 100 fluorescent units | 200 | about 700 fluorescent units | blue violet | – | ratio of fluorescence intensity Experimental Example 1511 to 1501 (0% water) ([2]; emission wavelength of 410 nm): 100 times
3 | O=C(CN1C(=O)c2cccc3cccc(c23)C1=O)NC(Cc1ccccc1)C(=O)O (stereo not drawn) [III-1] | – | – | – | – | – | increased | – | 100 | – | blue violet | about 400 nm | fluorescence intensity ([2]; water 0 to 70% of co-solvent volume): low fluorescence intensity; fluorescence intensity ([2]; water 80%): 50 fluorescent units; fluorescence intensity ([2]; water 100%): about 650 fluorescent units
4 | O=C(O)C[C@H](NC(=O)[C@H](CC(=O)O)NC(=O)[C@H](Cc1ccccc1)NC(=O)CN1C(=O)c2cccc3c(N4CCCCC4)ccc(c23)C1=O)C(=O)O [III-23] | green | about 525 nm | low fluorescence intensities | slightly increased | significantly increased | increased | – | – | – | green | about 550 nm | fluorescence intensity ([2]; water 90% (Experimental Example 910), water 0 to 90% tested): highest fluorescence intensity
5 | O=C(CN1C(=O)c2cccc3c(N4CCCCC4)ccc(c23)C1=O)NC(Cc1ccccc1)C(=O)NC(Cc1ccccc1)C(=O)O (stereo not drawn) [III-14] | – | – | – | – | – | – | – | – | – | – | – | fluorescence intensity with increase of the volume ratio of methanol ([3]; aggregation-induced emission): increased; color of observed fluorescence ([3]; glycerol/methanol co-solvent): green; emission wavelength ([3]; glycerol/methanol co-solvent): about 550 nm; fluorescence intensity ([3]; methanol 90% (Experimental Example 610), methanol 0 to 90% tested): largest fluorescence intensity
6 | CN(C)CCNC(=O)CCc1ccc2n1[B-](F)(F)[N+]1=C(c3ccc[nH]3)C=CC1=C2 [Lysotracker, reference compound] | – | – | – | – | – | – | – | – | – | – | – | fluorescence appearing at the acidic cells [4]: red fluorescence
